The target of assay [1] is T1, human RET kinase (Homo sapiens, UniProt P07949).
T1 construct: purchased Carna 08-159
Put plainly: RET Kinase Assay (LanthaScreen TR-FRET enzymatic assay). Format: biochemical. To be noted: 7 nM RET, 23 μM ATP. Summed up: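 Human RET (7 nM) preincubated 15 min with compound in 50 mM HEPES pH 7.5, 0.0015% Brij-35, then reacted with 3 μM FAM-P2 peptide and 23 μM ATP for 1 h at 28° C.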
(In TR-FRET formats the signal depends on donor and acceptor labels being close together.)

Assay [2] deals with T2, human KDR kinase (Homo sapiens, UniProt P35968).
T2 construct: purchased Carna 08-191
Put plainly: KDR Kinase Assay (LanthaScreen TR-FRET enzymatic assay). Format: biochemical. To be noted: 1.2 nM KDR, 92 μM ATP. Summed up: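 Recombinant human KDR (1.2 nM) preincubated 15 min at room temperature with compound, then reacted with 3 μM FAM-P22 peptide and 92 μM ATP in 50 mM HEPES pH 7.5 for 1 h at 28° C. EDTA stop, then TR-FRET acceptor/donor ratio read; percent of 1% DMSO control fitted sigmoidally for IC50.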

Assay [3] has as its system TT cells. Put plainly: TT Cell Proliferation Assay (WST-8, 8 days). The class given is cell-based. To be noted: Homo sapiens, 192 h, growth inhibition in TT cells, read-out: TT Cellular Activity. Summed up:
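TT cells, 6,000/well in RPMI-1640 with 10% FBS, attached 24 h, then exposed to compound at 5 μM down to 0.0005 μM final (0.5% DMSO) for 8 days at 37 °C. WST-8 added for 5 h, absorbance at 450 nm. IC50 calculated from the dilution series.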
On the technique in general: Tetrazolium assays rely on reduction of a dye to a coloured formazan, in cell work by metabolically active cells.

Where two headings read alike, the source gives them in different places. A value given as a limit tells only on which side of the number the result lay.

T2 sequence (P35968 20-1356): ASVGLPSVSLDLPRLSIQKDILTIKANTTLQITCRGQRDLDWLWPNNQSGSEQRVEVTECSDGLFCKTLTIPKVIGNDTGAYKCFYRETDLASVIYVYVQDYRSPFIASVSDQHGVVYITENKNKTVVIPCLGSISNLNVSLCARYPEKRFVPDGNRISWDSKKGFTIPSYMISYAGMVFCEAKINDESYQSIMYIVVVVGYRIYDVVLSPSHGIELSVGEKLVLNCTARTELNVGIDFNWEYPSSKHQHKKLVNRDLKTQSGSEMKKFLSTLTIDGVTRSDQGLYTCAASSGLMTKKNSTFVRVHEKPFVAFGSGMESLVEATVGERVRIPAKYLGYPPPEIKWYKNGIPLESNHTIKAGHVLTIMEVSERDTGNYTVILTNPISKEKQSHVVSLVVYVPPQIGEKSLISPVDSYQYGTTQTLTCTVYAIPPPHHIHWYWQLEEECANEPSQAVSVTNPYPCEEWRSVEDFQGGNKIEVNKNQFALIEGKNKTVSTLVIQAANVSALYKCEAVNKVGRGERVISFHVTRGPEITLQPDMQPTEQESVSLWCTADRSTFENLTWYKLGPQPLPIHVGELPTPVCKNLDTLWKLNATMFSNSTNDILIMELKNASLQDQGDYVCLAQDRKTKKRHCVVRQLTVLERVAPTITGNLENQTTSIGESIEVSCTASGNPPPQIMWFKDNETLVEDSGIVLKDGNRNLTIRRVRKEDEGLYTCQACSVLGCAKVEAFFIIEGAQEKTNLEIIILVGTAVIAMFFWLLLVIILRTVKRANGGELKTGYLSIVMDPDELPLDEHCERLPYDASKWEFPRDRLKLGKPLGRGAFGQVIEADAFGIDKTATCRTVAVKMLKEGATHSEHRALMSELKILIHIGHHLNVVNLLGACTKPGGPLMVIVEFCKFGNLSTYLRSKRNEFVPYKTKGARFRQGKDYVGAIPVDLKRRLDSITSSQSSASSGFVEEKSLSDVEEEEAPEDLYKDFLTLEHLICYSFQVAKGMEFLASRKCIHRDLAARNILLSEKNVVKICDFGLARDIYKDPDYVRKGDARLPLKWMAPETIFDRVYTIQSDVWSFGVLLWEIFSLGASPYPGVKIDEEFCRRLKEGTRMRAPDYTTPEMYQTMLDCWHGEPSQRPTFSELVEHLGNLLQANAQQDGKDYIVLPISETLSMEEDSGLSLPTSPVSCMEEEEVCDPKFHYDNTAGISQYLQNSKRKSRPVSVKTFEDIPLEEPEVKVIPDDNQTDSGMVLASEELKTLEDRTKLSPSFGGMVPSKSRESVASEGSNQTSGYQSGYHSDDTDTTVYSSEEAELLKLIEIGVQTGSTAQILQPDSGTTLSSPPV
T1 sequence (P07949 29-1114): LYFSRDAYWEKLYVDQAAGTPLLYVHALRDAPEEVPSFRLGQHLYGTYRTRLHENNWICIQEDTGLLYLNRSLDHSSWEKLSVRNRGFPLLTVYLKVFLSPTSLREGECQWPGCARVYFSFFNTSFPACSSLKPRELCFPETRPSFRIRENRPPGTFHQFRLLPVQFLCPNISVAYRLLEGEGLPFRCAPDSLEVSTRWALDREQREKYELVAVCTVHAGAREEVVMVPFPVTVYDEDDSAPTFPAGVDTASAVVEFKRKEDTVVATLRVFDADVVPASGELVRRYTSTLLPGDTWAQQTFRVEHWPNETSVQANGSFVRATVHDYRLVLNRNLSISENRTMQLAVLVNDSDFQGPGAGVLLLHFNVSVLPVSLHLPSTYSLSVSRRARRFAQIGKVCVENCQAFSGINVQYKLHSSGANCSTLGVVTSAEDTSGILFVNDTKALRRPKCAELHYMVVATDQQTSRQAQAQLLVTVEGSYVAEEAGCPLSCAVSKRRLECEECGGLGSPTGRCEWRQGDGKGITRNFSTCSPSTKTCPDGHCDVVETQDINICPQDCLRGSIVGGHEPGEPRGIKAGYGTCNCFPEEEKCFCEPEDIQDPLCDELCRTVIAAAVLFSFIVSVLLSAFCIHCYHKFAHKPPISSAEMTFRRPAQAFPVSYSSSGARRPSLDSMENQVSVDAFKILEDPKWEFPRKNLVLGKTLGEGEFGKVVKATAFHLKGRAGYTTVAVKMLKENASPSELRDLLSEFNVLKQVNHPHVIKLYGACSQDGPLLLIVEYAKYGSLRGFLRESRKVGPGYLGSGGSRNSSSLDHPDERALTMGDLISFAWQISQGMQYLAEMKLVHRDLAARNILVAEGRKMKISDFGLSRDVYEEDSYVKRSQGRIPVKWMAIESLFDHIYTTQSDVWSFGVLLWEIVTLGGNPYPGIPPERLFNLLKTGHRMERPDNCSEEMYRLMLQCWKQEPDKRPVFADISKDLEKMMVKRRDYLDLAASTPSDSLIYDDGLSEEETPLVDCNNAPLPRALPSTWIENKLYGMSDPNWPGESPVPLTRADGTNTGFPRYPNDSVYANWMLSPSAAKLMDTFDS

Take `Cn1cc(-c2cc(-c3ccc(N4C[C@@H]5C[C@@](C)(NC(=O)c6ncccc6F)C[C@@H]5C4)nc3)c3c(C#N)cnn3c2)cn1` [Example 91, N-((3aR,5s,6aS)-2-(5-(3-cyano-6-(1-methyl-1H-pyrazol-4-yl)pyrazolo[1,5-a]pyridin-4-yl)pyridin-2-yl)-5-methyloctahydrocyclopenta[c]pyrrol-5-yl)-3-fluoropicolinamide]: the IC50 in assay [1], in assay [2] and in assay [3] (TT) was at most 10 nM throughout.
Consider `CCOc1cc(-c2cnc(N3C[C@@H]4[C@H](C3)[C@H]4NC(=O)c3ncccc3Cl)cn2)c2c(C#N)cnn2c1` [Example 42, 3-chloro-N-((1R,5S,6s)-3-(5-(3-cyano-6-ethoxypyrazolo[1,5-a]pyridin-4-yl)pyrazin-2-yl)-3-azabicyclo[3.1.0]hexan-6-yl)picolinamide], for which the values for the IC50 in assay [1], in assay [2] and in assay [3] (TT) were 50 to 100 nM, above 100 nM and above 100 nM, respectively.
For the molecule `Cn1cc(-c2cc(-c3ccc(N4C[C@@H]5[C@H](CNC(=O)c6ncccc6Cl)[C@@H]5C4)nc3)c3c(C#N)cnn3c2)cn1` [Example 78, 3-chloro-N-(((1R,5S,6r)-3-(5-(3-cyano-6-(1-methyl-1H-pyrazol-4-yl)pyrazolo[1,5-a]pyridin-4-yl)pyridin-2-yl)-3-azabicyclo[3.1.0]hexan-6-yl)methyl)picolinamide], the IC50 in assay [1], in assay [2] and in assay [3] (TT) was at most 10 nM in each case.
Consider `Cn1ccc(-c2cc(-c3ccc(N4C[C@@H]5C[C@@](C)(NC(=O)c6ncccc6F)C[C@@H]5C4)nc3)c3c(C#N)cnn3c2)n1` [Example 123, N-((3aR,5s,6aS)-2-(5-(3-cyano-6-(1-methyl-1H-pyrazol-3-yl)pyrazolo[1,5-a]pyridin-4-yl)pyridin-2-yl)-5-methyloctahydrocyclopenta[c]pyrrol-5-yl)-3-fluoropicolinamide], for which the IC50 is at most 10 nM in assay [1], 10 to 50 nM in assay [2] and at most 10 nM in assay [3] (TT).
For the molecule `Cn1cc(-c2cc(-c3ccc(N4C[C@H]5CN(C(=O)C(O)c6ccccc6)C[C@H]5C4)nc3)c3c(C#N)cnn3c2)cn1` (stereo partly drawn) [Example 3, 4-(6-((3aR,6aS)-5-(2-hydroxy-2-phenylacetyl)hexahydropyrrolo[3,4-c]pyrrol-2(1H)-yl)pyridin-3-yl)-6-(1-methyl-1H-pyrazol-4-yl)pyrazolo[1,5-a]pyridine-3-carbonitrile], the IC50 is at most 10 nM in assay [1], 10 to 50 nM in assay [2] and 10 to 50 nM in assay [3] (TT).
In the case of `CCOc1cc(-c2ccc(N3C[C@@H]4C[C@@](C)(NC(=O)c5ncccc5C(F)(F)F)C[C@@H]4C3)nc2)c2c(C#N)cnn2c1` [Example 65, N-((3aR,5s,6aS)-2-(5-(3-cyano-6-ethoxypyrazolo[1,5-a]pyridin-4-yl)pyridin-2-yl)-5-methyloctahydrocyclopenta[c]pyrrol-5-yl)-3-(trifluoromethyl)picolinamide], the IC50 in assay [1] was at most 10 nM; in assay [2], 50 to 100 nM; in assay [3] (TT) it was 10 to 50 nM.
In the same order, the values of `Cn1cc(-c2cc(-c3ccc(N4C[C@@H]5[C@@H](CNC(=O)c6cc(F)ccc6Cl)[C@@H]5C4)nc3)c3c(C#N)cnn3c2)cn1` [Example 80, 2-chloro-N-(((1R,5S,6s)-3-(5-(3-cyano-6-(1-methyl-1H-pyrazol-4-yl)pyrazolo[1,5-a]pyridin-4-yl)pyridin-2-yl)-3-azabicyclo[3.1.0]hexan-6-yl)methyl)-5-fluorobenzamide] are at most 10 nM, at most 10 nM and at most 10 nM.
On the same counts, the results for `Cn1ccc(-c2cc(-c3ccc(N4C[C@@H]5C[C@@](C)(NC(=O)c6c(F)cccc6Cl)C[C@@H]5C4)nc3)c3c(C#N)cnn3c2)n1` [Example 93, 2-chloro-N-((3aR,5s,6aS)-2-(5-(3-cyano-6-(1-methyl-1H-pyrazol-3-yl)pyrazolo[1,5-a]pyridin-4-yl)pyridin-2-yl)-5-methyloctahydrocyclopenta[c]pyrrol-5-yl)-6-fluorobenzamide] are at most 10 nM, 10 to 50 nM and 10 to 50 nM.
In the same order, the values of `Cn1cc(-c2cc(-c3ccc(N4C[C@@H]5[C@H](C4)[C@@H]5NC(=O)c4ncccc4Cl)nc3)c3c(C#N)cnn3c2)cn1` [Example 30, 3-chloro-N-((1R,5S,6r)-3-(5-(3-cyano-6-(1-methyl-1H-pyrazol-4-yl)pyrazolo[1,5-a]pyridin-4-yl)pyridin-2-yl)-3-azabicyclo[3.1.0]hexan-6-yl)picolinamide] are at most 10 nM, 10 to 50 nM and 10 to 50 nM.
Consider `CCOc1cc(-c2cnc(N3C[C@@H]4[C@H](C3)[C@@H]4NC(=O)c3ncccc3Cl)cn2)c2c(C#N)cnn2c1` [Example 41, 3-chloro-N-((1R,5S,6r)-3-(5-(3-cyano-6-ethoxypyrazolo[1,5-a]pyridin-4-yl)pyrazin-2-yl)-3-azabicyclo[3.1.0]hexan-6-yl)picolinamide], for which the IC50 in assay [1], in assay [2] and in assay [3] (TT) was above 100 nM each time.
As for `CC(C)[C@@H](O)C(=O)N[C@H]1[C@@H]2CN(c3ccc(-c4cc(-c5cnn(C)c5)cn5ncc(C#N)c45)cn3)C[C@@H]21` [Example 19, (R)-N-((1R,5S,6s)-3-(5-(3-cyano-6-(1-methyl-1H-pyrazol-4-yl)pyrazolo[1,5-a]pyridin-4-yl)pyridin-2-yl)-3-azabicyclo[3.1.0]hexan-6-yl)-2-hydroxy-3-methylbutanamide], the IC50 in assay [1] is at most 10 nM; in assay [2], 10 to 50 nM; in assay [3] (TT) it was 10 to 50 nM.
Turning to `COc1ccc(CN2C[C@@H]3CN(c4ccc(-c5cc(-c6ccn(C)n6)cn6ncc(C#N)c56)cn4)C[C@@H]3C2)cn1` [Example 13, 4-(6-((3aR,6aS)-5-((6-methoxypyridin-3-yl)methyl)hexahydropyrrolo[3,4-c]pyrrol-2(1H)-yl)pyridin-3-yl)-6-(1-methyl-1H-pyrazol-3-yl)pyrazolo[1,5-a]pyridine-3-carbonitrile], the IC50 in assay [1] is at most 10 nM; in assay [2], 10 to 50 nM; in assay [3] (TT), 10 to 50 nM.
Take `Cn1cc(-c2cc(-c3ccc(N4C[C@@H]5[C@H](C4)[C@H]5NC(=O)c4ncc(F)cc4Cl)nc3)c3c(C#N)cnn3c2)cn1` [Example 22, 3-chloro-N-((1R,5S,6s)-3-(5-(3-cyano-6-(1-methyl-1H-pyrazol-4-yl)pyrazolo[1,5-a]pyridin-4-yl)pyridin-2-yl)-3-azabicyclo[3.1.0]hexan-6-yl)-5-fluoropicolinamide]: the IC50 in assay [1] is at most 10 nM; in assay [2], 10 to 50 nM; in assay [3] (TT), 50 to 100 nM.
In the same order, the values of `CC(C)CC(=O)N[C@H]1[C@@H]2CN(c3ccc(-c4cc(-c5cnn(C)c5)cn5ncc(C#N)c45)cn3)C[C@@H]21` [Example 25, N-((1R,5S,6s)-3-(5-(3-cyano-6-(1-methyl-1H-pyrazol-4-yl)pyrazolo[1,5-a]pyridin-4-yl)pyridin-2-yl)-3-azabicyclo[3.1.0]hexan-6-yl)-3-methylbutanamide] are at most 10 nM, 10 to 50 nM and 10 to 50 nM.
For the molecule `Cn1cc(-c2cc(-c3ccc(N4C[C@@H]5C[C@@](C)(NS(=O)(=O)c6c(F)cccc6Cl)C[C@@H]5C4)nc3)c3c(C#N)cnn3c2)cn1` [Example 59, 2-chloro-N-((3aR,5s,6aS)-2-(5-(3-cyano-6-(1-methyl-1H-pyrazol-4-yl)pyrazolo[1,5-a]pyridin-4-yl)pyridin-2-yl)-5-methyloctahydrocyclopenta[c]pyrrol-5-yl)-6-fluorobenzenesulfonamide], the IC50 in assay [1], in assay [2] and in assay [3] (TT) was at most 10 nM in each case.
Turning to `Cn1cc(-c2cc(-c3ccc(N4C[C@@H]5[C@H](C4)[C@H]5NC(=O)[C@H](O)c4ccccc4)nc3)c3c(C#N)cnn3c2)cn1` [Example 18, (R)-N-((1R,5S,6s)-3-(5-(3-cyano-6-(1-methyl-1H-pyrazol-4-yl)pyrazolo[1,5-a]pyridin-4-yl)pyridin-2-yl)-3-azabicyclo[3.1.0]hexan-6-yl)-2-hydroxy-2-phenylacetamide], the IC50 in assay [1] is at most 10 nM; in assay [2], 10 to 50 nM; in assay [3], 10 to 50 nM.
As to `Cn1cc(-c2cc(-c3ccc(N4C[C@@H]5[C@H](CNC(=O)C(O)c6ccccc6)[C@@H]5C4)nc3)c3c(C#N)cnn3c2)cn1` (stereo partly drawn) [Example 79, N-(((1R,5S,6r)-3-(5-(3-cyano-6-(1-methyl-1H-pyrazol-4-yl)pyrazolo[1,5-a]pyridin-4-yl)pyridin-2-yl)-3-azabicyclo[3.1.0]hexan-6-yl)methyl)-2-hydroxy-2-phenylacetamide], the IC50 in assay [1], in assay [2] and in assay [3] (TT) was at most 10 nM in each case.
With `Cn1cc(-c2cc(-c3ccc(N4C[C@@H]5[C@H](C4)[C@H]5NC(=O)c4ncccc4C(F)(F)F)nc3)c3c(C#N)cnn3c2)cn1` [Example 21, N-((1R,5S,6s)-3-(5-(3-cyano-6-(1-methyl-1H-pyrazol-4-yl)pyrazolo[1,5-a]pyridin-4-yl)pyridin-2-yl)-3-azabicyclo[3.1.0]hexan-6-yl)-3-(trifluoromethyl)picolinamide], the results for the IC50 in assay [1], in assay [2] and in assay [3] (TT) were at most 10 nM, at most 10 nM and 10 to 50 nM, respectively.

(Values after US20220220128A1, “HETEROCYCLIC COMPOUNDS AS KINASE INHIBITORS, COMPOSITIONS COMPRISING THE HETEROCYCLIC COMPOUND, AND METHODS OF USE THEREOF” (JS Innopharm (Shanghai) Ltd, priority 2019, published 2022).)
